{"source": "patent US20230047788A1", "about": "“COMPOSITIONS COMPRISING 5-CHOLESTEN-3, 25-DIOL, 3-SULFATE (25HC3S) OR PHARMACEUTICALLY ACCEPTABLE SALT THEREOF AND AT LEAST ONE CYCLIC OLIGOSACCHARIDE” (Virginia Commonwealth University, priority 2016, published 2023)", "origin": "cited, not measured here", "conditions": "at 25°C; cited from earlier work", "data": [{"smiles": "CC(O)COC[C@H]1O[C@@H]2O[C@H]3[C@H](O)[C@@H](O)[C@@H](O[C@H]4[C@H](O)[C@@H](O)[C@@H](O[C@H]5[C@H](O)[C@@H](O)[C@@H](O[C@H]6[C@H](O)[C@@H](O)[C@@H](O[C@H]7[C@H](O)[C@@H](O)[C@@H](O[C@H]8[C@H](O)[C@@H](O)[C@@H](O[C@H]1[C@H](O)[C@H]2O)O[C@@H]8COCC(C)O)O[C@@H]7COCC(C)O)O[C@@H]6COCC(C)O)O[C@@H]5COCC(C)O)O[C@@H]4COCC(C)O)O[C@@H]3COCC(C)O", "note": "(stereo partly drawn) [HP-β-CD, hydroxypropyl β-cyclodextrin]", "values": [{"measurement": "solubility in water", "value": 50, "unit": "% w/v"}]}]}
